Source: patent US11459375B2, “Cyclic peptides for the treatment of Graves' disease” (advanceCOR GmbH, priority 2017, dated 2022)
Peptide text beside a SMILES is read from it.

Key:
[1] = system: immunologically naïve mice; settings: mouse, in vivo, iv, 1 mg/kg
Experimental: BALB/c mice were adapted for at least one week to start experiments at the age of 12 weeks. Animals were kept as described before. […] Peptides (either 1 mg/kg body weight or NaCl vehicle control) were given by IV injection into a tail vein of these naïve mice (n=5 per group), and then continued at 4-weekly intervals for 6 months, as described before for the therapeutic study in immunized mice. Serum samples were taken at identical intervals.
1) “3rd generation assay”: Antibodies against TSHR were detected by a commercially available 3rd generation enzyme immunoassay provided by RSR Limited, Avenue Park, Pentwyn, Cardiff, U.K., in which the of the human Graves patient-derived M22 monoclonal antibody and serum antibodies compete for binding sites on immobilized TSHR. […] The assay was performed using 30 μl 1:10 (PBS) diluted serum in at least double determination according to the manufacturer's instructions.

Ad-TSHR-immunized mice = experiment: anti-TSHR antibody titers in serum of treated Ad-TSHR-immunized mice (3rd generation ELISA, inhibition of M22 binding to TSHR); assay type: in vivo, BALB/c mice; settings: 1 mg/kg IV at 4-weekly intervals, after start of therapy despite continuing immunisations
Experimental: The measurements were carried out in Ad-TSHR-immunized mice treated by either 4-weekly injections with vehicle (0.9% NaCl, “Graves' no therapy”, n=25 mice), or administrations of 1 mg/kg body weight of peptide of the invention 836 (12 mice), or of peptide 829 (13 mice), or of TSHR-Fc (18 mice), or of control peptide 835 (13 mice). In addition, age-matched immunologically naïve unimmunized mice (“healthy”, 19 animals) were investigated. Data are represented as mean±SEM. Significance over time was tested by analysis of variance (ANOVA) of groups at given time points, and controlled by ANOVA for repeated measurements within one group, followed by LSD post-hoc testing. *p<0.05, and **p<0.005, compared to the TSHR-immunized group treated with only NaCl (“Graves' no therapy”).
Animals were kept under standard housing conditions (23±2° C., 55±10% RH) in groups of ten animals in GR1800DD cages (Tecniplast®). […] All guidelines for care of animals were respected. Mice received 10^10 plaque-forming units (pfu) of adenovirus carrying the A-subunit of the TSHR gene. […]
Anti-TSHR autoantibody titers and potency of antibodies to stimulate TSHR-dependent cAMP levels in test cells were determined before start of immunisation (basal value), 56 days after first immunisation, 133 days after first immunisation, and 189 days after first immunisation, and at the end of experiment.

[2] = system: monoclonal M22 antibody binding to TSHR; experiment: direct binding/scavenging of anti-TSHR antibody M22 (modified 3rd generation titer assay); parameters: species or system human; settings: 100 μg/mL test substance, M22 final concentration 10 ng/mL
Experimental: In FIG. 8 the effects of peptides on anti-TSHR antibody titers (A) and on cAMP stimulation in TSHR-expressing test cells (B) were studied ex vivo (anti-TSHR-antibody positive serum samples). Each measurement was carried out in 4 samples. Results are shown as % of untreated controls with standard errors of the means (SEM). Significance was tested by analysis of variance (ANOVA) between groups, followed by LSD post-hoc testing. **p<0.001, compared to controls
In order to investigate the direct binding of peptides to anti-TSHR antibodies, Roche's Cobas® assay (04388790) for ECLIA was used with minor modifications: 30 μl of the diluted monoclonal M22-Bio antibody was mixed with 30 μl diluted peptide or TSHR-Fc (final concentration of 100 μg/ml in PBS) and added to the TSHR-pre-coated microtiter plate. After an incubation step for 2 h at room temperature the protocol was continued according to the manufacturer's instructions.

Compound	anti-TSHR antibody titers in naive mice [1]	generation of anti-TSHR antibodies [1]	time course of anti-TSHR antibody titers (Ad-TSHR-immunized mice)	anti-TSHR antibody titers (M22 binding to its substrate) [2]
CC[C@H](C)[C@@H]1NC(=O)[C@H](C(C)C)NC(=O)[C@H]([C@@H](C)O)NC(=O)[C@H](CC(C)C)NC(=O)[C@H](Cc2ccc(O)cc2)NC(=O)[C@H](CCCCN)NC(=O)[C@H](CC(N)=O)NC(=O)[C@H](CCCCN)NC(=O)[C@H](CC(N)=O)NC(=O)[C@H](CC(C)C)NC(=O)[C@H](Cc2ccc(O)cc2)NC(=O)[C@H](C(C)C)NC(=O)[C@H](C)NC(=O)[C@H](CC(=O)O)NC(=O)[C@H](CC(C)C)NC(=O)[C@H](CCCCN)NC(=O)[C@H]([C@@H](C)O)NC(=O)CNC(=O)[C@H](CC(N)=O)NC(=O)[C@H](Cc2ccccc2)NC(=O)[C@H](C)NC(=O)[C@H](Cc2ccc(O)cc2)NC(=O)CNC(=O)[C@H](CC(=O)O)NC1=O [peptide 836] (cyclo(GYAFNGTKLDAVYLNKNKYLTVID))	below background	not observed in any of the 6 animals	no trends for further anti-TSHR titer increases after start of therapy	
TSHR-Fc: fusion protein: first 289 amino acids of human TSH receptor (A-subunit), GGR linker and Fc portion of human IgG2			no trends for further anti-TSHR titer increases after start of therapy	significantly reduced anti-TSHR antibody titers
